Measurements from patent US20210045385A1, “PYRIDAZINONE-SUBSTITUTED KETOXIMES AS HERBICIDES” (FMC Corporation, priority 2018, published 2021).

What was measured:
Type in all cases: in vivo
[1] = system: duck salad (Heteranthera limosa); assay: Test D flooded paddy test, visual plant response rating; details: 250 g ai/ha, scale 0 to 100 (0 no effect, 100 complete control), 13 to 15 d
Summary of the method: (§1)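 Greenhouse paddy assay scored on a 0–100 visual scale after 13 to 15 d, where 100 means complete control and a dash marks no result; dosing was into 3 cm floodwater over 2-leaf plants.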

[2] = system: sedge umbrella (small-flower umbrella sedge, Cyperus difformis); assay: as above; details: 250 g ai/ha, scale 0 to 100 (0 no effect, 100 complete control), 13 to 15 d
Summary of the method: as §1

[3] = system: barnyardgrass (Echinochloa crus-galli); assay: as above; details: 250 g ai/ha, scale 0 to 100 (0 no effect, 100 complete control), 13 to 15 d
Summary of the method: as §1

rice (Oryza sativa) = assay: as above; details: 250 g ai/ha, scale 0 to 100 (0 no effect, 100 complete control), 13 to 15 d
Summary of the method: as §1

[4] = system: ragweed (common ragweed, Ambrosia artemisiifolia); assay: Test C preemergence, visual plant response rating
Summary of the method: (§2)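 Seeds sown in a loam–sand blend got a directed preemergence soil spray; postemergence plants (2–10 cm, one- to two-leaf stage) were sprayed with compound in a non-phytotoxic solvent plus surfactant. Injury was scored visually against untreated controls after about 10 d in a greenhouse on a 0–100 scale (100 = complete control).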

[5] = system: foxtail, giant (giant foxtail, Setaria faberi); assay: Test C preemergence, visual plant response rating
Summary of the method: as §2

[6] = system: pigweed (Amaranthus retroflexus); assay: Test C preemergence, visual plant response rating
Summary of the method: as §2

kochia (Bassia scoparia) [7] = assay: Test C preemergence, visual plant response rating
Summary of the method: as §2

[8] = system: barnyardgrass (Echinochloa crus-galli); assay: Test C preemergence, visual plant response rating
Summary of the method: as §2

[9] = system: Italian ryegrass (Lolium mutiflorum); assay: Test C preemergence, visual plant response rating
Summary of the method: as §2

[10] = system: ragweed (common ragweed, Ambrosia artemisiifolia); assay: Test C postemergence, visual plant response rating
Summary of the method: as §2

corn (Zea mays) = assay: Test C postemergence, visual plant response rating
Summary of the method: as §2

[11] = system: foxtail, giant (giant foxtail, Setaria faberi); assay: Test C postemergence, visual plant response rating
Summary of the method: as §2

[12] = system: pigweed (Amaranthus retroflexus); assay: Test C postemergence, visual plant response rating
Summary of the method: as §2

[13] = system: blackgrass (Alopecurus myosuroides); assay: Test C postemergence, visual plant response rating
Summary of the method: as §2

[14] = system: galium (catchweed bedstraw, Galium aparine); assay: Test C postemergence, visual plant response rating
Summary of the method: as §2

kochia (Bassia scoparia) [15] = assay: Test C postemergence, visual plant response rating
Summary of the method: as §2

[16] = system: barnyardgrass (Echinochloa crus-galli); assay: Test C postemergence, visual plant response rating
Summary of the method: as §2

[17] = system: wheat (Triticum aestivum); assay: Test C postemergence, visual plant response rating
Summary of the method: as §2

[18] = system: Italian ryegrass (Lolium mutiflorum); assay: Test C postemergence, visual plant response rating
Summary of the method: as §2

[19] = Test C, 31 g ai/ha, 0 is no effect, 100 is complete control
[20] = Test C, postemergence, 125 g ai/ha

| Structure (SMILES) | Plant response rating, Ducksalad (Flood) [1] | Plant response rating, Sedge, Umbrella (Flood) [2] | Plant response rating, Barnyardgrass (Flood) [3] | Plant response rating, Rice (Flood) (rice (Oryza sativa)) | Ragweed plant response rating (0 to 100 scale) ([4]; 125 g ai/ha) | Ragweed plant response rating (0 to 100 scale) [4, 19] | Foxtail, Giant plant response rating (0 to 100 scale) ([5]; 125 g ai/ha) | Foxtail, Giant plant response rating (0 to 100 scale) [5, 19] | Pigweed plant response rating (0 to 100 scale) ([6]; 125 g ai/ha) | Pigweed plant response rating (0 to 100 scale) [6, 19] | Kochia plant response rating (0 to 100 scale) (kochia (Bassia scoparia) [7]; 125 g ai/ha) | Kochia plant response rating (0 to 100 scale) (kochia (Bassia scoparia) [7]; [19]) | Barnyardgrass plant response rating (0 to 100 scale) ([8]; 125 g ai/ha) | Barnyardgrass plant response rating (0 to 100 scale) [8, 19] | Ryegrass, Italian plant response rating (0 to 100 scale) ([9]; 125 g ai/ha) | Ryegrass, Italian plant response rating (0 to 100 scale) [9, 19] | Ragweed plant response rating (0 to 100 scale) ([10]; Postemergence, 31 g ai/ha) | Ragweed plant response rating (0 to 100 scale) [10, 20] | Corn plant response rating (0 to 100 scale) (corn (Zea mays); Postemergence, 31 g ai/ha) | Corn plant response rating (0 to 100 scale) (corn (Zea mays); [20]) | other results |
| --- | --- | --- | --- | --- | --- | --- | --- | --- | --- | --- | --- | --- | --- | --- | --- | --- | --- | --- | --- | --- | --- |
| CO/N=C(/c1cc(C)cc(Cl)c1)c1c(O)c(C)nn(C)c1=O [Compound 173] | 0 | 0 | 0 | 0 | 90 | 30 | 90 | 40 | 30 | 30 | 80 | 60 | 50 | 60 | 100 | 30 | 80 | 100 | 0 | 20 | Foxtail, Giant plant response rating (0 to 100 scale) ([11]; Postemergence, 31 g ai/ha): 30; Foxtail, Giant plant response rating (0 to 100 scale) [11, 20]: 80; Pigweed plant response rating (0 to 100 scale) ([12]; Postemergence, 31 g ai/ha): 70; Pigweed plant response rating (0 to 100 scale) [12, 20]: 90; Blackgrass plant response rating (0 to 100 scale) ([13]; Postemergence, 31 g ai/ha): 20; Blackgrass plant response rating (0 to 100 scale) [13, 20]: 40; Galium plant response rating (0 to 100 scale) ([14]; Postemergence, 31 g ai/ha): 90; Galium plant response rating (0 to 100 scale) [14, 20]: 100; Kochia plant response rating (0 to 100 scale) (kochia (Bassia scoparia) [15]; Postemergence, 31 g ai/ha): 60; Kochia plant response rating (0 to 100 scale) (kochia (Bassia scoparia) [15]; [20]): 90; Barnyardgrass plant response rating (0 to 100 scale) ([16]; Postemergence, 31 g ai/ha): 50; Barnyardgrass plant response rating (0 to 100 scale) [16, 20]: 80; Wheat plant response rating (0 to 100 scale) ([17]; Postemergence, 31 g ai/ha): 0; Wheat plant response rating (0 to 100 scale) [17, 20]: 0; Ryegrass, Italian plant response rating (0 to 100 scale) ([18]; Postemergence, 31 g ai/ha): 80; Ryegrass, Italian plant response rating (0 to 100 scale) [18, 20]: 100 |
| Cc1nn(C)c(=O)c(C(=NOC(C)C)c2cc(Cl)cc(Cl)c2F)c1O [Compound 167] | 70 | 95 | 95 | 65 | 100 | 80 | 100 | 100 | 100 | 100 | 100 | 70 | 100 | 100 | 100 | 100 | 100 | 100 | 30 | 70 | Foxtail, Giant plant response rating (0 to 100 scale) ([11]; Postemergence, 31 g ai/ha): 90; Foxtail, Giant plant response rating (0 to 100 scale) [11, 20]: 90; Pigweed plant response rating (0 to 100 scale) ([12]; Postemergence, 31 g ai/ha): 100; Pigweed plant response rating (0 to 100 scale) [12, 20]: 100; Blackgrass plant response rating (0 to 100 scale) ([13]; Postemergence, 31 g ai/ha): 80; Blackgrass plant response rating (0 to 100 scale) [13, 20]: 90; Galium plant response rating (0 to 100 scale) ([14]; Postemergence, 31 g ai/ha): 80; Galium plant response rating (0 to 100 scale) [14, 20]: 100; Kochia plant response rating (0 to 100 scale) (kochia (Bassia scoparia) [15]; Postemergence, 31 g ai/ha): 80; Kochia plant response rating (0 to 100 scale) (kochia (Bassia scoparia) [15]; [20]): 100; Barnyardgrass plant response rating (0 to 100 scale) ([16]; Postemergence, 31 g ai/ha): 80; Barnyardgrass plant response rating (0 to 100 scale) [16, 20]: 90; Wheat plant response rating (0 to 100 scale) ([17]; Postemergence, 31 g ai/ha): 70; Wheat plant response rating (0 to 100 scale) [17, 20]: 100; Ryegrass, Italian plant response rating (0 to 100 scale) ([18]; Postemergence, 31 g ai/ha): 100; Ryegrass, Italian plant response rating (0 to 100 scale) [18, 20]: 100 |
| CO/N=C(/c1cc(Cl)cc(OC)c1)c1c(O)c(C)nn(C)c1=O [Compound 165] | 0 | 0 | 0 | 0 | 90 | 50 | 70 | 60 | 20 | 0 | 100 | 80 | 80 | 60 | 100 | 80 | 80 | 100 | 0 | 20 | Foxtail, Giant plant response rating (0 to 100 scale) ([11]; Postemergence, 31 g ai/ha): 20; Foxtail, Giant plant response rating (0 to 100 scale) [11, 20]: 70; Pigweed plant response rating (0 to 100 scale) ([12]; Postemergence, 31 g ai/ha): 40; Pigweed plant response rating (0 to 100 scale) [12, 20]: 70; Blackgrass plant response rating (0 to 100 scale) ([13]; Postemergence, 31 g ai/ha): 20; Blackgrass plant response rating (0 to 100 scale) [13, 20]: 40; Galium plant response rating (0 to 100 scale) ([14]; Postemergence, 31 g ai/ha): 100; Galium plant response rating (0 to 100 scale) [14, 20]: 100; Kochia plant response rating (0 to 100 scale) (kochia (Bassia scoparia) [15]; Postemergence, 31 g ai/ha): 90; Kochia plant response rating (0 to 100 scale) (kochia (Bassia scoparia) [15]; [20]): 90; Barnyardgrass plant response rating (0 to 100 scale) ([16]; Postemergence, 31 g ai/ha): 40; Barnyardgrass plant response rating (0 to 100 scale) [16, 20]: 80; Wheat plant response rating (0 to 100 scale) ([17]; Postemergence, 31 g ai/ha): 0; Wheat plant response rating (0 to 100 scale) [17, 20]: 30; Ryegrass, Italian plant response rating (0 to 100 scale) ([18]; Postemergence, 31 g ai/ha): 70; Ryegrass, Italian plant response rating (0 to 100 scale) [18, 20]: 100 |
